Assay results taken from patent US10556865B2, “Synergistic herbicidal composition containing certain pyridine or pyrimidine carboxylic acids and certain cereal and rice herbicides” (Dow AgroSciences, LLC, priority 2007, dated 2020).

Legend:
Type in all cases: in vivo
[1] = system: rigid ryegrass (Lolium rigidum L; LOLRI); assay: Postemergence herbicidal activity of mixtures in cereal crops (greenhouse, visual injury)
Experimental: (§1) Seeds of the desired test plant species were planted in Sun Gro MetroMix® 306 planting mixture, which typically has a pH of 6.0 to 6.8 and an organic matter content of about 30 percent, in plastic pots with a surface area of 103.2 square centimeters (cm^2). When required to ensure good germination and healthy plants, a fungicide treatment and/or other chemical or physical treatment was applied. The plants were grown for 7-36 days in a greenhouse with an approximate 14 hour photoperiod which was maintained at about 18° C. during the day and 17° C. during the night. Nutrients and water were added on a regular basis and supplemental lighting was provided with overhead metal halide 1000-Watt lamps as necessary. The plants were employed for testing when they reached the second or third true leaf stage.
(§2) Treatments consisted of compound (as listed in Tables 1 through 64) and a second cereal herbicide alone and in combination. Weighed amounts of esters (methyl) or salts (TEA [triethylammonium], K [potassium]) of 4-amino-3-chloro -6-(4-chloro-2-fluoro-3-methoxyphenyl)pyridine-2-carboxylic acid (Compound A) or of 6-amino-5-chloro-2-(4-chloro-2-fluoro-3-methoxyphenyl)pyrimidine-4-carboxylic acid (Compound B), were placed in 25 milliliter (mL) glass vials and dissolved in a volume of 97:3 v/v acetone/DMSO to obtain 4.5 milligrams (mg) active ingredient (ai)/mL stock solutions. […] The concentrated stock solutions were diluted to 1.5 mg ai/mL with the addition of 2 volumes of an aqueous mixture containing acetone, water, isopropyl alcohol, DMSO, Agri-dex crop oil concentrate, and Triton® X-77 surfactant in a 64.7:26.0:6.7:2.0:0.7:0.01 v/v ratio. A dilution solution was prepared by mixing 1 volume of 97:3 v/v acetone/DMSO and 2 volumes of an aqueous mixture containing acetone, water, isopropyl alcohol, DMSO, Agri-dex crop oil concentrate, and Triton® X-77 surfactant in a 64.7:26.0:6.7:2.0:0.7:0.01 v/v ratio. Compound requirements are based upon a 12 mL application volume at a rate of 187 liters per hectare (L/ha). Spray solutions of the second cereal herbicide and experimental compound mixtures were prepared by adding the stock solutions to the appropriate amount of dilution solution to form 12 mL spray solution with active ingredients in two- and three-way combinations. Formulated compounds were applied to the plant material with an overhead Mandel track sprayer equipped with 8002E nozzles calibrated to deliver 187 L/ha over an application area of 0.503 square meters (m^2) at a spray height of 18 inches (43 cm) above average plant canopy. Control plants were sprayed in the same manner with the solvent blank.
(§3) The treated plants and control plants were placed in a greenhouse as described above and watered by sub-irrigation to prevent wash-off of the test compounds. After 20-22 days, the condition of the test plants as compared with that of the control plants was determined visually and scored on a scale of 0 to 100 percent where 0 corresponds to no injury and 100 corresponds to complete kill.
(§4) Colby's equation was used to determine the herbicidal effects expected from the mixtures (Colby, S. R. 1967. Calculation of the synergistic and antagonistic response of herbicide combinations. Weeds 15:20-22.).
(§5) The following equation was used to calculate the expected activity of mixtures containing two active ingredients, A and B: Expected=A+B−(A×B/100)

[2] = system: chickweed (Stellaria media L; STEME); assay: as above; settings: for pest or weed control at 140 g/ha: 140 g/ha alone
Experimental: as §1, §2, §3, §4, §5

[3] = system: Italian ryegrass (Lolium multiflorum L; LOLMU); assay: as above; settings: for LOLMU Ob: 25 g/ha
Experimental: as §1, §2, §3, §4, §5

[4] = system: annual ryegrass (Lolium multiflorum L; LOLMG); assay: as above; settings: 125 g/ha, Table 13
Experimental: as §1, with “When required to ensure good germination and healthy plants, a fungicide treatment and/or other chemical or physical treatment was applied.” left out
(§6) Treatments consisted of compound (as listed in Tables 1 through 64) and a second cereal herbicide alone and in combination. […] The concentrated stock solutions were diluted to 1.5 mg ai/mL with the addition of 2 volumes of an aqueous mixture containing acetone, water, isopropyl alcohol, DMSO, Agri-dex crop oil concentrate, and Triton® X-77 surfactant in a 64.7:26.0:6.7:2.0:0.7:0.01 v/v ratio. A dilution solution was prepared by mixing 1 volume of 97:3 v/v acetone/DMSO and 2 volumes of an aqueous mixture containing acetone, water, isopropyl alcohol, DMSO, Agri-dex crop oil concentrate, and Triton® X-77 surfactant in a 64.7:26.0:6.7:2.0:0.7:0.01 v/v ratio. Compound requirements are based upon a 12 mL application volume at a rate of 187 liters per hectare (L/ha). […] Formulated compounds were applied to the plant material with an overhead Mandel track sprayer equipped with 8002E nozzles calibrated to deliver 187 L/ha over an application area of 0.503 square meters (m^2) at a spray height of 18 inches […] above average plant canopy. Control plants were sprayed in the same manner with the solvent blank.
as §3, §4, §5

[5] = system: littleseed Canarygrass (Phalaris minor L; PHAMI); assay: as above; settings: 125 g/ha, Table 13
Experimental: as §1, with “When required to ensure good germination and healthy plants, a fungicide treatment and/or other chemical or physical treatment was applied.” left out
as §6, §3, §4, §5

[6] = system: scented mayweed (Matricaria chamomila L; MATCH); assay: as above
Experimental: (§7) The plants were grown for 7-36 days in a greenhouse with an approximate 14 hour photoperiod which was maintained at about 18° C. during the day and 17° C. during the night. Nutrients and water were added on a regular basis and supplemental lighting was provided with overhead metal halide 1000-Watt lamps as necessary. The plants were employed for testing when they reached the second or third true leaf stage.
(§8) Treatments consisted of compound (as listed in Tables 1 through 64) and a second cereal herbicide alone and in combination. […] Control plants were sprayed in the same manner with the solvent blank.
as §3, §5

[7] = system: Canada thistle (Cirsium arvense L; CIRAR); assay: as above
Experimental: as §7, §8, §3, §5

[8] = system: bird's-eye speedwell (Veronica persica L; VERPE); assay: as above
Experimental: as §7, §8, §3, §5

[9] = system: wild pansy (Viola tricolor L; VIOTR); assay: as above
Experimental: as §7, §8, §3, §5

[10] = system: black mustard (Brassica nigra L; BRSNI); assay: as above; settings: Brassica, post-emergence, read-out: BRSNI Ob
Experimental: as §1, §2, §3, §4, §5

[11] = system: wild buckwheat (Polygonum convolvulus L; POLCO); assay: as above
Experimental: as §1, §2, §3, §4, §5

[12] = system: kochia (Kochia scoparia L; KCHSC); assay: as above; settings: 450 g/ha alone
Experimental: as §1, §2, §3, §4, §5

Cyperus iria L. (CYPIR) = assay: Postemergence herbicidal mixtures for weed control in direct seeded rice (greenhouse, visual % injury); settings: CYPIR
[13] = system: Leptochloa chinensis (L.) NEES (LEFCH); assay: as above; settings: for % Injury Ob: LEFCH
[14] = system: Ipomoea hederacea (L.) JACQ. (IPOHE); assay: Postemergence herbicidal mixtures for weed control in direct seeded rice (greenhouse, visual % injury after 3 weeks); settings: IPOHE
[15] = system: downy brome (Bromus tectorum L; BROTE); assay: Postemergence herbicidal activity of mixtures in cereal crops (greenhouse, visual injury)
Experimental: as §1, §2, §3, §4, §5

[16] = system: windgrass (Apera spica-venti L; APESV); assay: as above; settings: Apera spica-venti, post-emergence, read-out: APESV Ob
Experimental: as §1, with “When required to ensure good germination and healthy plants, a fungicide treatment and/or other chemical or physical treatment was applied.” left out
as §6, §3, §4, §5

[17] = system: annual bluegrass (Poa annua L; POAAN); assay: as above; settings: 25 g/ha
Experimental: as §1, §2, §3, §4, §5

[18] = system: wild oats (Avena fatua L; AVEFA); assay: as above; settings: 25 g/ha, Table 17
Experimental: as §1, with “When required to ensure good germination and healthy plants, a fungicide treatment and/or other chemical or physical treatment was applied.” left out
as §6, §3, §4, §5

[19] = Stellaria media, post-emergence, read-out: STEME Ob

Molecule: 2-[4,5-dihydro-4-methyl-4-(1-methylethyl)-5-oxo-1H-imidazol-2-yl]-4(or 5)-methylbenzoic acid [Imazamethabenz, reference compound]
- LOLRI ([1]; 125 g/ha, Table 13): 0%
- STEME Ob ([2]; 125 g/ha): 10%
- LOLMU ([3]; 125 g/ha, Table 13): 0%
- LOLMG Ob [4]: 0%
- PHAMI [5]: 0%
- MATCH Ob ([6]; 125 g/ha): 0%

Molecule: COc1cc(OC)nc(NC(=O)NS(=O)(=O)N(C)S(C)(=O)=O)n1 [Amidosulfuron]
- CIRAR Ob ([7]; 10 g/ha): 20%
- pest or weed control at 10 g/ha ([8]; Veronica persica, post-emergence, 10 g/ha, read-out: VERPE Ob): 5%
- pest or weed control at 10 g/ha ([9]; Viola tricolor, post-emergence, 10 g/ha, read-out: VIOTR Ob): 5%

Molecule: CC(C)N1C(=O)c2ccccc2NS1(=O)=O [Bentazone]
- pest or weed control at 120 g/ha ([10]; 120 g/ha): 50%
- POLCO Ob ([11]; 120 g/ha): 0%

Molecule: N#Cc1cc(Br)c(O)c(Br)c1 [Bromoxynil]
- pest or weed control at 70 g/ha ([2]; Stellaria media, post-emergence, 70 g/ha, read-out: STEME Ob): 0%
- pest or weed control at 70 g/ha ([10]; 70 g/ha): 50%
- pest or weed control at 70 g/ha ([6]; Matricaria, post-emergence, 70 g/ha, read-out: MATCH Ob): 0%

Molecule: Cc1ccc(NC(=O)N(C)C)cc1Cl [Chlorotoluron]
- KCHSC Ob [12]: 50%
- pest or weed control at 450 g/ha ([10]; 450 g/ha alone): 50%

Molecule: CC1(C)CON(Cc2ccccc2Cl)C1=O [Clomazone]
- % Injury Ob (Cyperus iria L. (CYPIR); 560 g/ha alone): 0%
- % Injury Ob (Cyperus iria L. (CYPIR); 1120 g/ha alone): 0%
- % Injury Ob ([13]; 560 g/ha alone): 40%

Molecule: C/C(=N\NC(=O)Nc1cc(F)cc(F)c1)c1ncccc1C(=O)O [Diflufenzopyr]
- % Injury Ob ([14]; 4.38 g/ha alone): 10%
- % Injury Ob ([14]; 8.75 g/ha alone): 40%
- % Injury Ob ([14]; 17.5 g/ha alone): 60%
- % Injury Ob ([14]; 35 g/ha alone): 65%
- % Injury Ob (Cyperus iria L. (CYPIR); 4.38 g/ha alone): 10%
- % Injury Ob (Cyperus iria L. (CYPIR); 8.75 g/ha alone): 15%
- % Injury Ob (Cyperus iria L. (CYPIR); 17.5 g/ha alone): 20%
- % Injury Ob (Cyperus iria L. (CYPIR); 35 g/ha alone): 30%
- % Injury Ob ([13]; 8.75 g/ha alone): 0%

Molecule: COc1ncc(F)c2nc(S(=O)(=O)Nc3c(F)cccc3F)nn12 [Florasulam]
- CIRAR Ob ([7]; 1.25 g/ha): 20%
- VERPE Ob ([8]; 1.25 g/ha): 5%
- VERPE Ob ([8]; 1.3 g/ha alone): 28%
- VIOTR Ob ([9]; 1.25 g/ha): 10%
- VIOTR Ob ([9]; 1.3 g/ha alone): 53%
- MATCH Ob ([6]; 1.3 g/ha alone): 83%

Molecule: COC(=O)c1c(Cl)nn(C)c1S(=O)(=O)NC(=O)Nc1nc(OC)cc(OC)n1 [Halosulfuron-methyl]
- % Injury LEFCH Ob ([13]; alone 26 g/ha): 0%
- % Injury LEFCH Ob ([13]; alone 52 g/ha): 0%

Molecule: O=C(O)Cc1c[nH]c2ccccc12 [Indol-3-acetic acid]
- pest or weed control at 140 g/ha [2, 19]: 0%
- POLCO Ob ([11]; 140 g/ha alone): 0%
- pest or weed control at 140 g/ha ([6]; Matricaria, post-emergence, 140 g/ha alone, read-out: MATCH Ob): 0%

Molecule: O=C(O)CCCc1c[nH]c2ccccc12 [Indol-3-butyric acid]
- pest or weed control at 140 g/ha [2, 19]: 0%
- pest or weed control at 140 g/ha ([10]; 140 g/ha alone): 0%

Molecule: COc1cc(OC)nc(NC(=O)NS(=O)(=O)c2cc(CNS(C)(=O)=O)ccc2C(=O)O)n1 [Mesosulfuron, 2-[[[[(4,6-dimethoxy-2-pyrimidinyl)amino]carbonyl]amino]sulfonyl]-4-[[(methylsulfonyl)amino]-methyl]benzoic acid, reference compound]
- BROTE Ob ([15]; 3.75 g/ha, Table 15): 75%
- BROTE Ob ([15]; 3.8 g/ha, Table 8): 73%
- pest or weed control at 3.75 g/ha ([2]; Stellaria media, post-emergence, 3.75 g/ha, read-out: STEME Ob): 0%
- pest or weed control at 3.75 g/ha ([16]; 3.75 g/ha, Table 15): 93%
- CIRAR Ob ([7]; 3.75 g/ha): 20%
- pest or weed control at 3.75 g/ha ([6]; Matricaria, post-emergence, 3.75 g/ha, read-out: MATCH Ob): 5%

Molecule: COc1nc(C)nc(=NC(=O)NS(=O)(=O)c2ccccc2C(=O)O)[nH]1 [Metsulfuron]
- CIRAR Ob ([7]; 3.75 g/ha): 20%

Molecule: CCCOc1nn(C(=O)NS(=O)(=O)c2ccccc2C(=O)OC)c(=O)n1C [Propoxycarbazone-Na, methyl 2-[[[(4,5-dihydro-4-methyl-5-oxo-3-propoxy-1H-1,2,4-triazol-1-yl)carbonyl]amino]sulfonyl]benzoate, reference compound]
- LOLRI Ob ([1]; 25 g/ha, Table 17): 10%
- BROTE Ob ([15]; 25 g/ha, Table 10): 92%
- POAAN Ob ([17]; Table 10): 7%
- POAAN Ob ([17]; Table 17): 5%
- LOLMU Ob ([3]; Table 10): 17%
- LOLMU Ob ([3]; Table 17): 15%
- AVEFA Ob [18]: 76%
- pest or weed control at 25 g/ha ([16]; 25 g/ha, Table 17): 90%
- pest or weed control at 15 g/ha ([8]; Veronica persica, post-emergence, 15 g/ha, read-out: VERPE Ob): 5%
- pest or weed control at 15 g/ha ([6]; Matricaria, post-emergence, 15 g/ha, read-out: MATCH Ob): 50%

Molecule: COc1nc(C)nc(NC(=O)NS(=O)(=O)c2ccsc2C(=O)O)n1 [Thifensulfuron]
- CIRAR Ob ([7]; 3.75 g/ha): 20%

Molecule: COc1nc(C)nc(N(C)C(=O)NS(=O)(=O)c2ccccc2C(=O)O)n1 [Tribenuron]
- CIRAR Ob ([7]; 3.75 g/ha): 20%
